Assays:
Mice [1] = assay: Glucose tolerance test (GTT), glucose disposal; type: in vivo, mouse; conditions: 30 mg/kg
Procedure: (§1) Vehicle is CMC-Tween: 0.5% CMC+0.25% Tween 20 at an appropriate ml/kg. Dextrose dose per mouse=2 g dextrose/kg made from 0.5 g/ml stock dextrose solution. Compound 1 dose per mouse=30 mg/kg in CMC/Tween vehicle made from 4 mg/mL stock solution by adding 50 μL DMSO to 20 mg Compound 1, stirring to make a paste, adding 1 ml CMC/Tween with stirring, sonicating for 8 minutes on energy 05, and adjusting to 5 ml with CMC/Tween.
Glucose Tolerance Test (GTT)/Insulin Test
Mice (5 per group) were fasted at 6 am for an experiment at noon. Blood glucose was measured from tail nick blood using an Accucheck—Compact Monitoring Kit (Roche Diagnostics, Indianapolis Ind.). Baseline (time=−15 min) blood glucose concentration was determined for all mice and tail nick blood samples were collected. 2 g/kg dextrose (Hospira, Lake Forest, Ill.) was administered orally at time 0. Blood samples were collected from the following mice via tail nick blood draw (˜100 μL) into EDTA microtainer tubes at the following time points: −15, 0, 3, 6, 9, 12, 15, 20, 30 and 120 min. Terminal blood samples were collected from portal vein draws in three mice at t=20. Blood plasma was harvested from blood collected in EDTA microvettes by centrifugation (10 min at […]). Plasma was stored in −80 C freezer to be analyzed for other chemistry measurements.

Mice [2] = assay: In vivo GLP-1 secretion (GLP-1 protocol and GLP-1 assay); set-up: species or system mouse; conditions: 30 mg/kg, portal vein blood
Procedure: as §1
Mice (3 per group) were fasted at 6 am for an experiment at noon. Blood glucose was measured from tail nick blood using an Accucheck—Compact Monitoring Kit (Roche Diagnostics, Indianapolis Ind.). Baseline (time=−15 min) blood glucose concentration was determined for all mice. 2 g/kg dextrose (Hospira, Lake Forest, Ill.) was administered orally at time 0. Terminal blood samples were collected from the mice via portal vein draw (˜500 μL) into EDTA microtainer tubes at the following time points: −15, 0, 3, 6, 9, 12, 15, 20, 30 and 120 min. […] Plasma was stored in −80 C freezer to be analyzed for other chemistry measurements.
A GLP-1(Human, Mouse, Rat) ELA kit was used (ALPCO Diagnostics, Salem, N.H., Cat # 48-GLP-1-160) was used in a 96-well plate. […] 100 μl/well stop solution was added to each well to stop reaction, optical absorbance of wells read at 490 nm, and results calculated.

human TGR5 = target: T1, human TGR5 (Homo sapiens, UniProt Q8TDU6); assay: cAMP production assay in HEK293 cells stably expressing TGR5 (LANCE TR-FRET); type: cell-based; conditions: 30 minutes stimulation, read-out: cAMP Production in 293-TGR5 Cells EC50
T1 construct: expressed in transfected cells
T1 sequence (Q8TDU6 1-330): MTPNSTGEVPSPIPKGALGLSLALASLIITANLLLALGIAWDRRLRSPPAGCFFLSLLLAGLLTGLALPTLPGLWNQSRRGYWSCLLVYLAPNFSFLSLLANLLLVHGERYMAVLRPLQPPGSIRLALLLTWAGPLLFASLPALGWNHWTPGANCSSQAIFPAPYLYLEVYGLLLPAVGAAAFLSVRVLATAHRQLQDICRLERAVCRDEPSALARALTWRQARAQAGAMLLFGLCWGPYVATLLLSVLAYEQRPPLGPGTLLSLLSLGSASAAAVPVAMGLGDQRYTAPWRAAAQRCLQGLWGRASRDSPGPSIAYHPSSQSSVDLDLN
How it was run: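 HEK293 cells stably transfected with human TGR5, incubated overnight in DMEM with 0.1% FBS, then given IBMX (1 mM final) and stimulated with compounds for 30 minutes. cAMP measured by LANCE TR-FRET after 1-7 h detection at room temperature. EC50 values reported as ≦10 μM (+) or >10 μM (−).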

[3] = 2 g/kg dextrose orally at time 0, time 20 min
[4] = 2 g/kg dextrose orally at time 0, time −15 min (baseline)

O=c1c2ccccc2nc(-c2ccc(F)cc2)n1NCc1ccc(Br)cc1 [Example 1]
Plasma Glucose, Mean (Mice [1]; 2 g/kg dextrose orally at time 0, time 0 min): 220.4 mg/dL
Plasma Glucose, Mean (Mice [1]; 2 g/kg dextrose orally at time 0, time 3 min): 272.2 mg/dL
Plasma Glucose, Mean (Mice [1]; 2 g/kg dextrose orally at time 0, time 6 min): 332.6 mg/dL
Plasma Glucose, Mean (Mice [1]; 2 g/kg dextrose orally at time 0, time 9 min): 398.2 mg/dL
Plasma Glucose, Mean (Mice [1]; 2 g/kg dextrose orally at time 0, time 12 min): 427.2 mg/dL
Plasma Glucose, Mean (Mice [1]; 2 g/kg dextrose orally at time 0, time 15 min): 430.0 mg/dL
Plasma Glucose, Mean (Mice [1]; [3]): 425.9 mg/dL
Plasma Glucose, Mean (Mice [1]; 2 g/kg dextrose orally at time 0, time 30 min): 354.6 mg/dL
Plasma Glucose, Mean (Mice [1]; 2 g/kg dextrose orally at time 0, time 120 min): 213.2 mg/dL
Plasma Glucose, Mean (Mice [1]; [4]): 170.0 mg/dL
Plasma Glucose, AUC, Mean (Mice [1]; glucose tolerance test, 0-120 min): 16400
Plasma GLP-1, Mean (Mice [2]; [3]): 9.61 ng/mL
Plasma GLP-1, Mean (Mice [2]; [4]): 6.30 ng/mL
EC50 (human TGR5): ≤ 10 µM
